Values of other authors, collected in patent US4361545A (Rowell Laboratories, Inc., priority 1981, dated 1982).

In the case of Cn1c(=O)c2[nH]cnc2n(C)c1=O [theophylline], the solubility is given as “low to moderate solubility”.
